Experimental data reported in US20260158011A1 (Achieve Life Sciences, Inc., priority 2023, published 2026).
Like-named read-outs stand apart in the source and are kept apart here.

How the values were obtained:
[1] = tested on: adults who smoked 10 cigarettes per day; conditions: for Biochemically confirmed continuous smoking abstinence Weeks 3-6, % / Biochemically confirmed continuous smoking abstinence Weeks 9-12, %: primary outcome; for Biochemically confirmed continuous smoking abstinence Weeks 6-24, % / Biochemically confirmed continuous smoking abstinence Weeks 12-24, %: secondary outcome; for Relapse-free abstinence from week 6 to 24: intent-to-treat
Protocol: The trial was conducted at 17 U.S. sites. Adults aged 18 years were eligible if they currently smoked 10 cigarettes per day, had expired air carbon monoxide (CO) ≥10 ppm, and intended to quit smoking. Individuals were excluded if they used any non-cigarette tobacco product (pipe tobacco, cigars, smokeless tobacco, hookah), electronic cigarettes, smoking cessation medication (bupropion, varenicline, nortriptyline, nicotine replacement product), or marijuana (smoked or vaped) in the 28 days before randomization or planned to use them during the study. Other exclusion criteria included uncontrolled hypertension, hepatic or renal impairment, past 3-month history of acute myocardial infarction, unstable angina, cerebrovascular incident, or hospitalization for congestive heart failure, diagnosis of schizophrenia or bipolar disorder, current psychosis, suicidal ideation or suicide risk (Columbia Suicide Severity Rating Scale), (1) moderate to severe depression symptoms (Hospital Anxiety and Depression Scale score ≥11), (2) or a positive urinary screen for illicit drugs. (Full criteria in Trial Protocol).
At a screening visit, individuals provided written informed consent, completed a medical history, brief physical examination, electrocardiogram and laboratory tests, agreed to a quit date 5 to 7 days after study drug initiation, and recorded the number of cigarettes smoked daily for 7 days. At a second visit, participants who met inclusion and exclusion criteria were randomly assigned to study arm, received brief smoking cessation counseling, set their quit date within 5 to 7 days and started study medication the next day. A predetermined central computer-generated randomization sequence was used to assign participants (1:1:1) stratified by study site to receive placebo TID for 12 weeks (Arm A), 3 mg cytisinicline TID for 6 weeks followed by placebo TID for 6 weeks (Arm B), or 3 mg cytisinicline TID for 12 weeks (Arm C).
Study medication was identical-appearing tablets, containing 3 mg cytisinicline or placebo taken orally TID for 12 weeks. Participants were followed for 12 additional weeks after treatment ended. All participants received 10 minutes of brief smoking cessation behavioral support provided by trained counselors at each visit from randomization through week 24.
Assessments after randomization were conducted at in-person visits on day 2, weekly from 1 to 12 weeks, and at weeks 16, 20, and 24. Participants who discontinued study drug prematurely were encouraged to remain in the study and complete all assessment visits. Smoking status was assessed by self-report of cigarette abstinence since the last visit, measured weekly from weeks 2 through 12. Self-reported abstinence at weeks 16, 20, and 24 used the Russell criteria of not smoking more than 5 cigarettes since the last visit (3). A breath carbon monoxide (CO) level was measured at each visit. Verified abstinence required self-reported nonsmoking and a breath carbon monoxide (CO) <10 ppm. Participants not meeting these criteria or with missing data were classified as smoking.
The study had two primary endpoints. […] Study success was defined as either primary endpoint meeting statistical criterion. The secondary outcome measures were verified continuous cigarette abstinence to week 24 (weeks 3 to 24 for Arms B vs. A; weeks 9 to 24 for Arms C vs. A). A third secondary outcome measure compared the risk of relapse to smoking between weeks 6 and 24 among participants assigned to cytisinicline who achieved abstinence by week 6; these individuals were either switched to placebo at week 6 (Arm B) or continued cytisinicline to week 12 (Arm C). Other pre-specified endpoints included comparing the difference between arms in verified 7-day point-prevalence abstinence at each visit from week 2 through week 24 and assessing for evidence of effect modification for subsets defined by baseline attributes.

[2] = biological target: neuronal alpha4, beta2 (α4β2) receptors (Homo sapiens, UniProt P17787+P43681); conditions: background studies; cited from earlier work
[3] = tested on: adults smoking 10+ cigarettes daily; conditions: for Quit Rate, End-of-Treatment Week 4 / Quit Rate, Continuous Abstinence Weeks 5 to 8: CO<10 ppm confirmed; for Reduction in cigarettes smoked / Reduction in CO: 25 days; for Drug-placebo difference in quit rate: cytisinicline 3.0 mg TID; for Reduction in CO: expired CO; for Quit Rate, Continuous Abstinence Weeks 5 to 8: off treatment
Protocol: This was a six-arm, multi-center, double-blind, randomized, placebo-controlled study conducted in male or female adults ≥18 years of age, smoking 10+ cigarettes daily, and willing to set a quit date that is 5-7 days after randomization. […] The study also evaluated the effectiveness of a simplified TID dosing schedule for 1.5 mg and an increased dose of 3.0 mg (using both the commercial titration (COM) and simplified TID dosing schedules).
Study treatment started the day after randomization such that study treatment was initiated prior to the quit date, as shown in FIG. 3.
The primary efficacy endpoint for this study was the percent reduction in the number of cigarettes smoked during treatment, which was calculated as follows:
where N=total number of cigarettes smoked, B=number of cigarettes smoked at baseline and D=number of days.
The primary outcome (Cigarette Score) and the main secondary abstinence outcomes were subjected to sensitivity analyses. The main secondary abstinence outcomes were the initial quit rate at Week 4 and continued 4-week abstinence through Week 5 to Week 8, confirmed by expired carbon monoxide (CO) of <10 ppm designated as Cess/W5-8/CO Success.
Carbon monoxide (CO) levels (ppm) were assessed during the study at screening, baseline, end of study treatment intervention (Week 4), and weekly through Week 8 (FIG. 9).
Serum cotinine levels were exploratory and assessed only at screening, Week 4, and Week 8. Reported results for cotinine of <10 ng/mL were transformed to 0 ng/mL prior to statistical analysis.
The primary outcome was based on the number of cigarettes smoked on each day from a diary. The Cigarette Score used the diary data for the planned 25 days while on study treatment. Presented are sensitivity analyses for the comparison of the 3.0 mg TID arm and the pooled placebo arm related to variations on the primary analysis of Cigarette Score. The alternative definition of the Cigarette Score featured cigarettes recorded in the diary after the planned quit period of Days 5-7, that is, from Day 8 onward, instead of from Day 1 onward.
Another alterative analysis was based on re-analyses of the primary Cigarette Score and the above alternative Cigarette Score, with a weight related to the standard error of the mean number of cigarettes estimated from the diary entries. The weight used for each subject was 1/(SE)^2, where SE is the standard error of the mean estimate, and this type of weighting, referred to as inverse variance weighting, is used commonly. This weighting gives greater weight to means that are estimated with a smaller SE. A small modification to this definition of weight was necessary, however. In computing 1/(SE)^2, a specific rule was used when SE=0, specifically when all diary entry values were equal. In these cases, the SE was computed as if one and only one of the recorded values was larger by one. It can be shown that when this modification to the data is made SE=1/N, where N is the number of the subjects daily (days) entries.

[4] = Arm B Cytisinicline 6 weeks, N = 269
[5] = Arm C Cytisinicline 12 weeks, N = 270
[6] = cytisine 1.5 mg, downward titration (COM) schedule
[7] = cytisine 3.0 mg TID, listed as CYT
[8] = cytisine 3.0 mg TID, listed as Cytisinicline
[9] = cytisine 3.0 mg, downward titration (COM) schedule

neuronal alpha4, beta2 (α4β2) receptors, sequence (P43681 29-627 limits assumed): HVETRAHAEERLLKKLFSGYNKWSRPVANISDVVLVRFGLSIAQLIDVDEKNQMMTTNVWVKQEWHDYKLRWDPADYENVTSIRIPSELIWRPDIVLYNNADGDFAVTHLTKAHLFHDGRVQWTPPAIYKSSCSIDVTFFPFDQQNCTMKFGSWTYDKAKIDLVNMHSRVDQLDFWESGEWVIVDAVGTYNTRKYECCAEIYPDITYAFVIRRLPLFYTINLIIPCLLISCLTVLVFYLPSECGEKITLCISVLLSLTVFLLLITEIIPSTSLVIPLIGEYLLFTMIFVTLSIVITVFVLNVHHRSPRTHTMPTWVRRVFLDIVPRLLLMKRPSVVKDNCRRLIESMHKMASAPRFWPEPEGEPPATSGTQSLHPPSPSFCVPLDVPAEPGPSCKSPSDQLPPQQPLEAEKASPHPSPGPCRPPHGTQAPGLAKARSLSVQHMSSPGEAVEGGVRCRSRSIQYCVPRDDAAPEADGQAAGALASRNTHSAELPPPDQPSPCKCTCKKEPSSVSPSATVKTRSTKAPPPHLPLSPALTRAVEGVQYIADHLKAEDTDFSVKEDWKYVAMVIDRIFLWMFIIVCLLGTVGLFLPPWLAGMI
neuronal alpha4, beta2 (α4β2) receptors, sequence (P17787 26-502): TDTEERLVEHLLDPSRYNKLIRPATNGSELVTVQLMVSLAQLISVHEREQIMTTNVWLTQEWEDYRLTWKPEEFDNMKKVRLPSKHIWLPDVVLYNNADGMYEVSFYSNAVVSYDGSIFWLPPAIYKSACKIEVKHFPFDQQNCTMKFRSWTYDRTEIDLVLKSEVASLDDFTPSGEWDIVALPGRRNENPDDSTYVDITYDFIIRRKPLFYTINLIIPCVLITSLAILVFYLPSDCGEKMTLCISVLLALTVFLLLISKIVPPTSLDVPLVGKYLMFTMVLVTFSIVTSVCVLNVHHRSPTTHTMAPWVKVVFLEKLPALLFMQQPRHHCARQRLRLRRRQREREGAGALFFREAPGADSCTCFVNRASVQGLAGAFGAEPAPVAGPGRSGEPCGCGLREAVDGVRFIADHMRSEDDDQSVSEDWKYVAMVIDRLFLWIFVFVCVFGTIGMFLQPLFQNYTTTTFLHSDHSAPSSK

O=c1cccc2n1C[C@@H]1CNC[C@H]2C1 [cytisine, (−)-Cytisine]
OR for relapse-free abstinence week 6 to 24, Arm B vs Arm C ([1]; 12-week versus 6-week cytisinicline): 1.31 | Biochemically confirmed continuous smoking abstinence Weeks 3-6, % [1, 4]: 25.3% | Biochemically confirmed continuous smoking abstinence Weeks 9-12, % [1, 4]: 22.3% | Biochemically confirmed continuous smoking abstinence Weeks 6-24, % [1, 4]: 8.9% | Biochemically confirmed continuous smoking abstinence Weeks 12-24, % [1, 4]: 13.8% | OR versus placebo, continuous abstinence weeks 3 to 24 ([1]; Arm B vs. A): 3.7 | OR versus placebo, continuous abstinence weeks 3 to 6 ([1]; Arm B vs. A (6-week treatment)): 8.0 | Risk Difference, continuous smoking abstinence Weeks 6-24 ([1]; Arm B vs. Arm A, Cytisinicline-6 weeks vs. placebo, 95% CI 0.03, 0.09): 0.06 | Risk Difference, continuous smoking abstinence Weeks 12-24 ([1]; Arm B vs. Arm A, Cytisinicline-6 weeks vs. placebo, 95% CI 0.04, 0.13): 0.09 | Risk Difference, continuous smoking abstinence Weeks 9-12 ([1]; Arm B vs. Arm A, Cytisinicline-6 weeks vs. placebo, 95% CI 0.10, 0.20): 0.15 | Risk Difference, continuous smoking abstinence Weeks 3-6 ([1]; Arm B vs. Arm A, Cytisinicline-6 weeks vs. placebo, 95% CI 0.16, 0.25): 0.21 | Relative Risk, continuous smoking abstinence Weeks 6-24 ([1]; Arm B vs. Arm A, Cytisinicline-6 weeks vs. placebo, 95% CI 1.56, 8.50): 3.45 | Relative Risk, continuous smoking abstinence Weeks 12-24 ([1]; Arm B vs. Arm A, Cytisinicline-6 weeks vs. placebo, 95% CI 1.59, 5.46): 2.87 | Relative Risk, continuous smoking abstinence Weeks 9-12 ([1]; Arm B vs. Arm A, Cytisinicline-6 weeks vs. placebo, 95% CI 1.98, 5.30): 3.18 | Relative Risk, continuous smoking abstinence Weeks 3-6 ([1]; Arm B vs. Arm A, Cytisinicline-6 weeks vs. placebo, 95% CI 3.26, 10.74): 5.71 | NNT (number needed to treat), continuous smoking abstinence Weeks 3-6 ([1]; Arm B vs. Arm A, Cytisinicline-6 weeks vs. placebo, 95% CI 4, 7): 5 | NNT (number needed to treat), continuous smoking abstinence Weeks 9-12 ([1]; Arm B vs. Arm A, Cytisinicline-6 weeks vs. placebo, 95% CI 4, 11): 7 | NNT (number needed to treat), continuous smoking abstinence Weeks 12-24 ([1]; Arm B vs. Arm A, Cytisinicline-6 weeks vs. placebo, 95% CI 7, 24): 11 | NNT (number needed to treat), continuous smoking abstinence Weeks 6-24 ([1]; Arm B vs. Arm A, Cytisinicline-6 weeks vs. placebo, 95% CI 10, 40): 16 | Biochemically-confirmed continuous smoking abstinence, weeks 3 to 6 ([1]; Arm B: 3 mg cytisinicline TID 6 weeks then placebo 6 weeks): 25.3% | Continuous abstinence weeks 3 to 24 ([1]; Arm B: 6-week cytisinicline treatment): 8.9% | Relapse-free abstinence from week 6 to 24 ([1]; Arm B: switched to placebo at week 6): 10.4% | Biochemically confirmed continuous smoking abstinence Weeks 3-6, % [1, 5]: 22.2% | Biochemically confirmed continuous smoking abstinence Weeks 9-12, % [1, 5]: 32.6% | Biochemically confirmed continuous smoking abstinence Weeks 6-24, % [1, 5]: 11.9% | Biochemically confirmed continuous smoking abstinence Weeks 12-24, % [1, 5]: 21.1% | OR versus placebo, continuous abstinence weeks 9 to 24 ([1]; Arm C vs. A): 5.3 | OR versus placebo, continuous abstinence weeks 9 to 12 ([1]; Arm C vs. A (12-week treatment)): 6.3 | Risk Difference, continuous smoking abstinence Weeks 6-24 ([1]; Arm C vs. Arm A, Cytisinicline-12 weeks vs. placebo, 95% CI 0.05, 0.12): 0.09 | Risk Difference, continuous smoking abstinence Weeks 12-24 ([1]; Arm C vs. Arm A, Cytisinicline-12 weeks vs. placebo, 95% CI 0.11, 0.20): 0.16 | Risk Difference, continuous smoking abstinence Weeks 3-6 ([1]; Arm C vs. Arm A, Cytisinicline-12 weeks vs. placebo, 95% CI 0.13, 0.22): 0.18 | Risk Difference, continuous smoking abstinence Weeks 9-12 ([1]; Arm C vs. Arm A, Cytisinicline-12 weeks vs. placebo, 95% CI 0.20, 0.30): 0.26 | Relative Risk, continuous smoking abstinence Weeks 6-24 ([1]; Arm C vs. Arm A, Cytisinicline-12 weeks vs. placebo, 95% CI 2.15, 11.05): 4.59 | Relative Risk, continuous smoking abstinence Weeks 12-24 ([1]; Arm C vs. Arm A, Cytisinicline-12 weeks vs. placebo, 95% CI 2.53, 8.15): 4.40 | Relative Risk, continuous smoking abstinence Weeks 3-6 ([1]; Arm C vs. Arm A, Cytisinicline-12 weeks vs. placebo, 95% CI 2.842, 9.50): 5.02 | Relative Risk, continuous smoking abstinence Weeks 9-12 ([1]; Arm C vs. Arm A, Cytisinicline-12 weeks vs. placebo, 95% CI 2.98, 7.58): 4.65 | NNT (number needed to treat), continuous smoking abstinence Weeks 9-12 ([1]; Arm C vs. Arm A, Cytisinicline-12 weeks vs. placebo, 95% CI 3, 6): 4 | NNT (number needed to treat), continuous smoking abstinence Weeks 3-6 ([1]; Arm C vs. Arm A, Cytisinicline-12 weeks vs. placebo, 95% CI 4, 8): 6 | NNT (number needed to treat), continuous smoking abstinence Weeks 12-24 ([1]; Arm C vs. Arm A, Cytisinicline-12 weeks vs. placebo, 95% CI 4, 9): 6 | NNT (number needed to treat), continuous smoking abstinence Weeks 6-24 ([1]; Arm C vs. Arm A, Cytisinicline-12 weeks vs. placebo, 95% CI 8, 20): 11 | Biochemically-confirmed continuous smoking abstinence, weeks 9 to 12 ([1]; Arm C: 3 mg cytisinicline TID 12 weeks): 32.6% | Continuous abstinence weeks 9 to 24 ([1]; Arm C: 12-week cytisinicline treatment): 21.1% | Relapse-free abstinence from week 6 to 24 ([1]; Arm C: continued cytisinicline to week 12): 13.3% | Odds Ratio Arm B vs. Arm A, continuous smoking abstinence Weeks 6-24 ([1]; Cytisinicline 6 wk vs. placebo, 95% CI 1.5 to 10.2, P .002): 3.7 | Odds Ratio Arm B vs. Arm A, continuous smoking abstinence Weeks 3-6 ([1]; Cytisinicline 6 wk vs. placebo, 95% CI 3.9 to 16.3, P <.001): 8.0 | Odds Ratio Arm C vs. Arm A, continuous smoking abstinence Weeks 12-24 ([1]; Cytisinicline 12 wk vs. placebo, 95% CI 2.8 to 11.1, P <.001): 5.3 | Odds Ratio Arm C vs. Arm A, continuous smoking abstinence Weeks 9-12 ([1]; Cytisinicline 12 wk vs. placebo, 95% CI 3.7 to 11.6, P <.001): 6.3 | Mean total cigarette craving score (QSU-brief) ([1]; baseline to week 6, cytisinicline for 6 or 12 weeks compared to placebo): declined more rapidly | Binding to α4β2 receptors [2]: bind strongly and preferentially | Quit Rate, End-of-Treatment Week 4 ([3]; cytisine 1.5 mg TID): 52% | Quit Rate, End-of-Treatment Week 4 [3, 6]: 51% | Quit Rate, End-of-Treatment Week 4 ([3]; cytisine 3.0 mg TID): 54% | Quit Rate, End-of-Treatment Week 4 [3, 7]: 54% | Quit Rate, End-of-Treatment Week 4 [3, 8]: 54% | Quit Rate, End-of-Treatment Week 4 [3, 9]: 50% | Serum cotinine levels ([3]; all cytisine-treated arms, Week 4): material reduction in cotinine levels | OR for initial quit rate at Week 4 versus placebo ([3]; cytisine 1.5 mg TID): 5.81 | OR for prolonged abstinence Week 5 to Week 8 versus placebo ([3]; cytisine 1.5 mg TID): 4.33 | Reduction in cigarettes smoked ([3]; cytisine 1.5 mg TID): 79% | OR for initial quit rate at Week 4 versus placebo ([3]; cytisine 1.5 mg, COM schedule): 5.59 | OR for prolonged abstinence Week 5 to Week 8 versus placebo ([3]; cytisine 1.5 mg, COM schedule): 3.23 | Reduction in cigarettes smoked [3, 6]: 80% | OR for initial quit rate at Week 4 versus placebo ([3]; cytisine 3.0 mg TID): 6.31 | OR for prolonged abstinence Week 5 to Week 8 versus placebo ([3]; cytisine 3.0 mg TID): 5.04 | Reduction in cigarettes smoked ([3]; cytisine 3.0 mg TID): 74% | OR for initial quit rate at Week 4 versus placebo [3, 8]: 6.3 | OR for prolonged abstinence Week 5 to Week 8 versus placebo [3, 8]: 5.0 | OR for initial quit rate at Week 4 versus placebo ([3]; cytisine 3.0 mg, COM schedule): 5.38 | OR for prolonged abstinence Week 5 to Week 8 versus placebo ([3]; cytisine 3.0 mg, COM schedule): 2.24 | Reduction in cigarettes smoked [3, 9]: 78% | Drug-placebo difference in quit rate ([3]; 4 weeks = end of treatment): 38.3% | Drug-placebo difference in quit rate ([3]; 4 weeks off treatment (Weeks 5-8)): 22.2% | Reduction in CO ([3]; cytisine 1.5 mg TID): 71% | Reduction in CO [3, 6]: 78% | Reduction in CO ([3]; cytisine 3.0 mg TID): 80% | Reduction in CO [3, 9]: 71% | Cigarette Score effect estimate (3.0 mg TID versus pooled placebo) ([3]; not weighted, diary start: Quit Day (8th day after start of intervention)): −11.8 | Cigarette Score effect estimate (3.0 mg TID versus pooled placebo) ([3]; not weighted, diary start: start of intervention (primary outcome)): −9.5 | Quit Rate, Continuous Abstinence Weeks 5 to 8 ([3]; cytisine 1.5 mg TID): 27% | Quit Rate, Continuous Abstinence Weeks 5 to 8 [3, 6]: 22% | Quit Rate, Continuous Abstinence Weeks 5 to 8 ([3]; cytisine 3.0 mg TID): 30% | Quit Rate, Continuous Abstinence Weeks 5 to 8 [3, 7]: 30% | Quit Rate, Continuous Abstinence Weeks 5 to 8 [3, 8]: 30% | Quit Rate, Continuous Abstinence Weeks 5 to 8 [3, 9]: 16% | Cigarette Score effect estimate (3.0 mg TID versus pooled placebo) ([3]; weighted analysis, diary start: Quit Day (8th day after start of intervention)): −15.0 | Cigarette Score effect estimate (3.0 mg TID versus pooled placebo) ([3]; weighted analysis, diary start: start of intervention): −11.8
